In publication PMC10065799, “High-throughput profiling of sequence recognition by tyrosine kinases and SH2 domains using bacterial peptide display” (eLife, 2023) one finds Screen data, which are given here for 46 sequences.
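Further: log2 fold change in enrichment of variant over reference.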

The target of the first test is c-Src kinase domain (Homo sapiens, UniProt P12931). The test can be described thus: pTyr-Var library bacterial peptide display kinase screen (enrichment scores). Format: biochemical. The note with it: sheet "Src"; effect of the variant peptide relative to its reference peptide in the pTyr-Var library screen.
With FLENFYDLEKD [MMP3_Y42_K45E_YF], the Screen was 0.2474.

FSTPPYLLEAA [BRIP1_Y921_S919P_YF] came in with a Screen of -1.274.

On to GESLTYVSTTF [C1orf162_Y120_A121V], for which the Screen is -2.006.

LDFPEYNGVDR [CASQ1_Y43_D44N] yielded a Screen of 0.514.

With LERFIYNRQEF [HLA-DPB1_Y59_E62Q_YF], the Screen is given as -1.248.

As for PSDLLYIPDIQ [ITGA2B_Y845_L847P], the Screen was -2.46.

Regarding QMVDMYASSFM [AVPR2_Y124_G122D_YF], the Screen turned out to be 0.5236.

The sequence VNFDFYTVNLG [GFPT1_Y367_D366Y_YF] came in with a Screen of 0.9419.

Still in this test, the particulars now being: sheet "Src"; variant peptide versus its reference peptide in the pTyr-Var library screen.
DFFDLYGGKKF [PTPN11_Y66_E69K_YF] returned a Screen of 0.3147.

In the case of DGQFVYKLTDF [TBK1_Y153_S151F], the Screen is -0.3973.

FIIFIYAMKKK [SLCO1B1_Y645_L643F_YF] displayed a Screen of 2.408.

With GGSDCYGSLRP [MYLK_Y846_R845C], the Screen came to 2.609.

The sequence LFLALYTGLVR [PIGB_Y402_H407R] registered a Screen of -0.3512.

In turn, LNPLIYTLRNA [OR4C46_Y285_K288R] yielded a Screen of 1.167.

For NHFKIYNLFAE [PTEN_Y68_C71Y_YF], the Screen is -1.146.

NHFKRYNLCAE [PTEN_Y68_I67R_YF] came in with a Screen of -2.549.

PGDGEYFTLQI [TP53_Y327_L323G] gave a Screen of 0.07795.

In the case of PLQKIYNFNVL [SLC4A1_Y553_T552I_YF], the Screen came to 2.735.

PPDGEYFTLQI [TP53_Y327_L323P] gave a Screen of 0.5031.

Take SVMAEYGLFAA [VSX2_Y219_G223A_YF]: the Screen is -0.3175.

For VEEDTYTMPST [PTK2_Y407_D402V], the Screen is recorded as 0.7074.

A further test addresses T1, c-Abl kinase domain (Mus musculus, UniProt P00520).
T1 sequence (P00520 242-493 limits assumed): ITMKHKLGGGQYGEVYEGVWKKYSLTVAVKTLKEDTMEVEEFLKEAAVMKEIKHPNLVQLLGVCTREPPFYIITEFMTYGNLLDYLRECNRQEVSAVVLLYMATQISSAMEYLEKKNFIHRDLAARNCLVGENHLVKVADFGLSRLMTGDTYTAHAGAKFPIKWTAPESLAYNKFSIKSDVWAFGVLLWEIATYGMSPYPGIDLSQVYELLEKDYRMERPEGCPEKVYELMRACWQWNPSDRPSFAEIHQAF
Described as above. The class given is biochemical. The conditions noted are these: fig5-data2, sheet "Abl"; Screen for the variant/reference peptide pair, pTyr-Var library.
Take AALLNYKAGRD [GRIN2A_Y737_V734L]: the Screen was -0.3155.

With AKKMKYFEGVS [PRKDC_Y682_I680M], the Screen came to 0.9485.

On to CEAIEYLESKQ [BTK_Y511_M509I], for which the Screen is on record as 1.454.

Sequence CENCHYPILPL [LCK_Y25_V28L] registered a Screen of 0.2762.

The sequence DRLTVYIDRVR [LMNA_Y45_A43T] came in with a Screen of -0.2946.

Turning to DRQASYLDKVR [KRT17_Y98_L95Q], the Screen was 2.325.

Take FKGIVYSVSSD [DCX_Y70_A71S]: the Screen was -0.3809.

FLAVGYHMPHI [IDS_Y225_K227M] came in with a Screen of -0.568.

Sequence GMKIVYVFVKK [DNAI2_Y5_E2K_YF] yielded a Screen of 1.393.

LSCLAYSGKDA [FXN_Y205_S202C] returned a Screen of -1.545.

LWKWRYEELKE [CCDC102B_Y299_K298R] registered a Screen of 0.5114.

In turn, NCLRVYVAGRF [CRB1_Y711_E710V] came in with a Screen of -0.2235.

In the case of NNRVFYGNSDC [RS1_Y177_R182C], the Screen is listed as -1.349.

As to PFQGAYLKINK [MYO1B_Y967_E969K], the Screen amounted to 1.339.

The sequence PIPIKYKAMKK [MYD88_Y257_L252P] had a Screen of -1.096.

For the sequence PQIVNYSPDCI [LDHB_Y128_K127N], the Screen is on record as -0.6074.

PVFEVYPLLNC [GATA1_Y78_Q76E] showed a Screen of 0.8954.

Consider PVQAAYQKVEA [HBB_Y131_V135E], for which the Screen is -0.9436.

On to QFKGKYLAKHN [CASK_Y712_D710G_YF], for which the Screen was determined as 0.5412.

QQIFTYDSGIH [JUP_Y22_T19I_YF] gave a Screen of 1.325.

REGDKYVSHGA [ASS1_Y113_A111D] displayed a Screen of 0.7285.

RLLVVYTWTQR [HBB_Y36_P37T] came in with a Screen of 0.544.

Still in this test, the particulars now being: sheet "Abl"; effect of variant peptide relative to its reference peptide in pTyr-Var library screen (enrichment).
Sequence FSGQVYRQRRK [TH_Y230_D227G] gave a Screen of 0.751.

For the sequence KAWTIYHPEDS [ZBP1_Y165_R166H], the Screen worked out at 3.304.

In turn, KLSHLYQDHMQ [WNT5A_Y86_C83S] registered a Screen of -1.969.
